Experimental data: article PMC10946398 (Journal of Medicinal Chemistry, 2024)
Where “and” joins values, the source holds several entries; their conditions need not be identical. Equal entries are not always repeated.

Test: parallel artificial membrane permeability assay
Assay type: in vitro ADME
Conditions: 100 μM, phosphate buffer pH 6.4, 17 h, 37 °C, 150 rpm, triplicates

SMILES | PAMPA −LogPe
CC(C)C[C@H]1C(=O)NCc2ccc([nH]2)CN[C@@H](Cc2ccccc2)C(=O)N[C@@H](C)C(=O)N1C [14c, (5S,8S,11S)-11-Benzyl-5-isobutyl-6,8-dimethyl-1^1H-3,6,9,12-tetraaza-1(2,5)-pyrrolacyclotridecaphane-4,7,10-trione, 1H-Benzo[d][1,2,3]triazol-1-ol] | 5.12
CC(C)C[C@@H]1NC(=O)[C@H](C)N(C)C(=O)[C@H](Cc2ccccc2)NCc2cc(cn2C)CNC1=O [17d, (5S,8S,11S,Z)-11-Benzyl-5-isobutyl-1^1,8,9-trimethyl-1^1H-3,6,9,12-tetraaza-1(2,4)-pyrrolacyclotridecaphane-4,7,10-trione] | 6.61 ± 0.07
CC(C)C[C@@H]1NC(=O)CN(C)C(=O)[C@H](Cc2ccccc2)NCc2ccc(n2C)CNC1=O [15b, (5S,11S)-11-Benzyl-5-isobutyl-1^1,9-dimethyl-1^1H-3,6,9,12-tetraaza-1(2,5)-pyrrolacyclotridecaphane-4,7,10-trione] | 5.93
CC(C)C[C@@H]1NC(=O)CN(C)C(=O)[C@H](Cc2ccccc2)NCc2cc(c[nH]2)CNC1=O [16b, (5S,11S,Z)-11-Benzyl-5-isobutyl-9-dimethyl-1^1H-3,6,9,12-tetraaza-1(2,4)-pyrrolacyclotridecaphane-4,7,10-trione] | 6.76
CC(C)C[C@@H]1NC(=O)CN(C)C(=O)[C@H](Cc2ccccc2)NCC2=CC=C(CNC1=O)O2 [18b, (5S,11S)-11-Benzyl-5-isobutyl-9-methyl-3,6,9,12-tetraaza-1(2,5)-furanacyclotridecaphane-4,7,10-trione] | 5.88 and 5.88 ± 0.04
CC(C)C[C@@H]1NC(=O)[C@H](C)NC(=O)[C@H](Cc2ccccc2)NCC2=CC=C(CN(C)C1=O)O2 [19a, (5S,8S,11S)-11-Benzyl-5-isobutyl-3,8-dimethyl-3,6,9,12-tetraaza-1(2,5)-furanacyclotridecaphane-4,7,10-trione] | 5.71 and 5.71 ± 0.03
CC(C)C[C@@H]1NC(=O)[C@H](C)N(C)C(=O)[C@H](Cc2ccccc2)NCc2cc(c[nH]2)CNC1=O [16d, (5S,8S,11S,Z)-11-Benzyl-5-isobutyl-8,9-dimethyl-1^1H-3,6,9,12-tetraaza-1(2,4)-pyrrolacyclotridecaphane-4,7,10-trione] | 7.53
CC(C)C[C@@H]1NC(=O)[C@H](C)N(C)C(=O)[C@H](Cc2ccccc2)NCc2ccc([nH]2)CNC1=O [14d, (5S,8S,11S)-11-Benzyl-5-isobutyl-8,9-dimethyl-1^1H-3,6,9,12-tetraaza-1(2,5)-pyrrolacyclotridecaphane-4,7,10-trione] | 5.01
CC(C)C[C@@H]1NC(=O)[C@H](C)NC(=O)[C@H](Cc2ccccc2)N(C)Cc2ccc([nH]2)CNC1=O [14e, (5S,8S,11S)-11-Benzyl-5-isobutyl-8,12-dimethyl-1^1H-3,6,9,12-tetraaza-1(2,5)-pyrrolacyclotridecaphane-4,7,10-trione, 1H-Benzo[d][1,2,3]triazol-1-ol] | 5.11
CC(C)C[C@@H]1NC(=O)[C@H](C)NC(=O)[C@H](Cc2ccccc2)NCc2ccc([nH]2)CNC1=O [14a, (5S,8S,11S)-11-Benzyl-5-isobutyl-8-methyl-1^1H-3,6,9,12-tetraaza-1(2,5)-pyrrolacyclotridecaphane-4,7,10-trione, 1H-Benzo[d][1,2,3]triazol-1-ol] | 7.72
CC(C)C[C@@H]1NC(=O)[C@H](C)N(C)C(=O)[C@H](Cc2ccccc2)NCc2ccc(n2C)CNC1=O [15d, (5S,8S,11S)-11-Benzyl-5-isobutyl-1^1,8,9-trimethyl-1^1H-3,6,9,12-tetraaza-1(2,5)-pyrrolacyclotridecaphane-4,7,10-trione] | 6.30
CC(C)C[C@@H]1NC(=O)CN(C)C(=O)[C@H](Cc2ccccc2)NCc2ccc([nH]2)CNC1=O [14b, (5S,11S)-11-Benzyl-5-isobutyl-9-methyl-1^1H-3,6,9,12-tetraaza-1(2,5)-pyrrolacyclotridecaphane-4,7,10-trione] | 5.89 and 5.89 ± 0.08
